# Tests used:
# Experiment in all cases: relative viability (nuclei count vs DMSO), 5 days (fraction); higher = more cells survive
# XMD13-2 + Palbociclib = compound: C1CC1C(=O)NC2=NNC3=C2C=CC(=C3)C4=CC(=CC=C4)C(=O)NC5CC5 [XMD13-2] + CC(=O)c1c(C)c2cnc(Nc3ccc(N4CCNCC4)cn3)nc2n(C2CCCC2)c1=O [Palbociclib] (partner 0.5 µM)
# Procedure, shortened: (§1)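 Relative viability was taken as the ratio of nuclei in treated wells to nuclei in vehicle wells. Lung cancer cell lines in 1536-well plates received compounds by pin tool one day after seeding, either one drug alone or a fixed anchor-drug dose plus five library-drug doses (not always all listed) in √10 steps. Nuclei were counted on 4× images after 5 days of treatment, and values are medians of duplicate plates.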
# ALW-II-49-7 + Phenformin = compound: Cc1ccc(C(=O)Nc2cccc(C(F)(F)F)c2)cc1Nc1cncc(C(N)=O)c1 [ALW-II-49-7] + N=C(N)NC(=N)NCCc1ccccc1 [Phenformin] (partner 250 µM)
# Procedure, shortened: as §1
# Dasatinib + Luminespib = compound: Cc1nc(Nc2ncc(C(=O)Nc3c(C)cccc3Cl)s2)cc(N2CCN(CCO)CC2)n1 [Dasatinib] + CCNC(=O)c1noc(-c2cc(C(C)C)c(O)cc2O)c1-c1ccc(CN2CCOCC2)cc1 [Luminespib] (partner 0.01 µM)
# Procedure, shortened: as §1
# Dasatinib + Pemetrexed = compound: Cc1nc(Nc2ncc(C(=O)Nc3c(C)cccc3Cl)s2)cc(N2CCN(CCO)CC2)n1 [Dasatinib] + Nc1nc2[nH]cc(CCc3ccc(C(=O)N[C@@H](CCC(=O)O)C(=O)O)cc3)c2c(=O)[nH]1 [Pemetrexed] (partner 0.2 µM)
# Procedure, shortened: as §1
Cell Line,relative viability (XMD13-2 + Palbociclib; first compound 0.05 µM),relative viability (XMD13-2 + Palbociclib; first compound 0.1581 µM),relative viability (XMD13-2 + Palbociclib; first compound 0.5 µM),relative viability (XMD13-2 + Palbociclib; first compound 1.581 µM),relative viability (XMD13-2 + Palbociclib; first compound 5 µM),relative viability (ALW-II-49-7 + Phenformin; first compound 0.08 µM),relative viability (ALW-II-49-7 + Phenformin; first compound 0.253 µM),relative viability (ALW-II-49-7 + Phenformin; first compound 0.8 µM),relative viability (ALW-II-49-7 + Phenformin; first compound 2.53 µM),relative viability (ALW-II-49-7 + Phenformin; first compound 8 µM),relative viability (Dasatinib + Luminespib; first compound 0.005 µM),relative viability (Dasatinib + Luminespib; first compound 0.01581 µM),relative viability (Dasatinib + Luminespib; first compound 0.05 µM),relative viability (Dasatinib + Luminespib; first compound 0.1581 µM),relative viability (Dasatinib + Luminespib; first compound 0.5 µM),relative viability (Dasatinib + Pemetrexed; first compound 0.005 µM),relative viability (Dasatinib + Pemetrexed; first compound 0.01581 µM),relative viability (Dasatinib + Pemetrexed; first compound 0.05 µM),relative viability (Dasatinib + Pemetrexed; first compound 0.1581 µM),relative viability (Dasatinib + Pemetrexed; first compound 0.5 µM)
NCI-H1666,0.629,0.685,0.67,0.665,0.675,0.565,0.568,0.58,0.703,0.653,0.992,1.05,1.06,0.88,0.459,0.871,0.848,0.88,0.73,0.633
A-427,0.568,0.499,0.573,,0.473,0.216,0.305,0.316,0.357,0.27,0.742,0.704,0.739,0.673,0.486,0.972,0.832,0.807,0.556,0.619
NCI-H2342,0.517,0.522,0.546,0.488,0.502,0.572,0.602,0.635,0.497,0.564,0.769,0.548,0.439,0.437,0.281,0.742,0.705,0.676,0.514,0.285
NCI-H1651,0.543,0.507,0.508,0.527,0.503,0.345,0.312,0.376,0.317,0.321,0.742,0.723,0.868,0.677,0.63,0.58,0.506,0.485,0.545,0.426
NCI-H1793,0.357,0.34,0.327,0.324,0.273,0.41,0.35,0.258,0.302,0.297,0.164,0.14,0.148,0.128,0.104,0.609,0.503,0.556,0.424,0.488
NCI-H520,0.256,0.239,0.213,0.203,0.188,0.57,0.604,0.624,0.681,0.562,0.184,0.209,0.221,0.194,0.197,0.51,0.358,0.285,0.138,0.138
NCI-H522,0.931,0.873,1.22,0.875,0.885,0.678,0.667,0.687,0.576,0.732,1.16,0.913,1.08,0.775,0.923,1.04,1.03,0.914,0.706,0.681
201T,0.356,0.377,0.539,0.357,0.34,0.43,0.456,0.456,0.477,0.414,0.998,0.81,0.836,0.548,0.378,0.404,0.332,0.31,0.292,0.268
